Reference: the NIST ThermoML archive (doi:10.1016/j.tca.2015.06.017)
Numbers after ± are expanded uncertainties.

Assay: xn = mol fraction of the nth substance listed
Details: 323.15 K, Liquid, Vibrating tube method

CC(C)CCl [1-chloro-2-methylpropane] + CCCCCCC
mass density (5000 kPa, x2 = 0.7993): 690.97 ± 0.31 kg/m3
mass density (5000 kPa, x2 = 0.8995): 677.02 ± 0.31 kg/m3
mass density (5000 kPa, x2 = 0.9507): 670.29 ± 0.31 kg/m3
mass density (7000 kPa, x2 = 0.0531): 838.13 ± 0.28 kg/m3
mass density (7000 kPa, x2 = 0.1023): 825.7 ± 0.29 kg/m3
mass density (7000 kPa, x2 = 0.2009): 802.4 ± 0.29 kg/m3
mass density (7000 kPa, x2 = 0.3009): 780.57 ± 0.3 kg/m3
mass density (7000 kPa, x2 = 0.3981): 760.9 ± 0.31 kg/m3
mass density (7000 kPa, x2 = 0.4986): 742.03 ± 0.31 kg/m3
mass density (7000 kPa, x2 = 0.5998): 724.42 ± 0.32 kg/m3
mass density (7000 kPa, x2 = 0.7038): 707.68 ± 0.32 kg/m3
mass density (7000 kPa, x2 = 0.7993): 693.36 ± 0.33 kg/m3
mass density (7000 kPa, x2 = 0.8995): 679.35 ± 0.34 kg/m3
mass density (7000 kPa, x2 = 0.9507): 672.58 ± 0.34 kg/m3
mass density (10000 kPa, x2 = 0.0531): 841.75 ± 0.3 kg/m3
mass density (10000 kPa, x2 = 0.1023): 829.31 ± 0.3 kg/m3
mass density (10000 kPa, x2 = 0.2009): 805.94 ± 0.31 kg/m3
mass density (10000 kPa, x2 = 0.3009): 784.05 ± 0.32 kg/m3
mass density (10000 kPa, x2 = 0.3981): 764.32 ± 0.33 kg/m3
mass density (10000 kPa, x2 = 0.4986): 745.38 ± 0.34 kg/m3
mass density (10000 kPa, x2 = 0.5998): 727.75 ± 0.35 kg/m3
mass density (10000 kPa, x2 = 0.7038): 710.93 ± 0.36 kg/m3
mass density (10000 kPa, x2 = 0.7993): 696.57 ± 0.36 kg/m3
mass density (10000 kPa, x2 = 0.8995): 682.48 ± 0.37 kg/m3
mass density (10000 kPa, x2 = 0.9507): 675.7 ± 0.37 kg/m3
mass density (20000 kPa, x2 = 0.0531): 853.08 ± 0.35 kg/m3
mass density (20000 kPa, x2 = 0.1023): 840.6 ± 0.36 kg/m3
mass density (20000 kPa, x2 = 0.2009): 817.1 ± 0.38 kg/m3
mass density (20000 kPa, x2 = 0.3009): 794.98 ± 0.4 kg/m3
mass density (20000 kPa, x2 = 0.3981): 775.23 ± 0.41 kg/m3
mass density (20000 kPa, x2 = 0.4986): 755.93 ± 0.43 kg/m3
mass density (20000 kPa, x2 = 0.5998): 738.09 ± 0.44 kg/m3
mass density (20000 kPa, x2 = 0.7038): 721.08 ± 0.46 kg/m3
mass density (20000 kPa, x2 = 0.7993): 706.61 ± 0.47 kg/m3
mass density (20000 kPa, x2 = 0.8995): 692.36 ± 0.48 kg/m3
mass density (20000 kPa, x2 = 0.9507): 685.54 ± 0.49 kg/m3
mass density (30000 kPa, x2 = 0.0531): 863.29 ± 0.39 kg/m3
mass density (30000 kPa, x2 = 0.1023): 850.64 ± 0.41 kg/m3
mass density (30000 kPa, x2 = 0.2009): 826.96 ± 0.44 kg/m3
mass density (30000 kPa, x2 = 0.3009): 804.68 ± 0.46 kg/m3
mass density (30000 kPa, x2 = 0.3981): 784.58 ± 0.49 kg/m3
mass density (30000 kPa, x2 = 0.4986): 765.27 ± 0.51 kg/m3
mass density (30000 kPa, x2 = 0.5998): 747.25 ± 0.53 kg/m3
mass density (30000 kPa, x2 = 0.7038): 730.1 ± 0.56 kg/m3
mass density (30000 kPa, x2 = 0.7993): 715.4 ± 0.57 kg/m3
mass density (30000 kPa, x2 = 0.8995): 700.96 ± 0.59 kg/m3
mass density (30000 kPa, x2 = 0.9507): 694.07 ± 0.6 kg/m3
mass density (40000 kPa, x2 = 0.0531): 872.52 ± 0.43 kg/m3
mass density (40000 kPa, x2 = 0.1023): 859.81 ± 0.45 kg/m3
mass density (40000 kPa, x2 = 0.2009): 835.84 ± 0.49 kg/m3
mass density (40000 kPa, x2 = 0.3009): 813.46 ± 0.53 kg/m3
mass density (40000 kPa, x2 = 0.3981): 793.25 ± 0.56 kg/m3
mass density (40000 kPa, x2 = 0.4986): 773.87 ± 0.59 kg/m3
mass density (40000 kPa, x2 = 0.5998): 755.68 ± 0.62 kg/m3
mass density (40000 kPa, x2 = 0.7038): 738.29 ± 0.65 kg/m3
mass density (40000 kPa, x2 = 0.7993): 723.4 ± 0.67 kg/m3
mass density (40000 kPa, x2 = 0.8995): 708.85 ± 0.69 kg/m3
mass density (40000 kPa, x2 = 0.9507): 701.87 ± 0.71 kg/m3
mass density (50000 kPa, x2 = 0.0531): 881.03 ± 0.46 kg/m3
mass density (50000 kPa, x2 = 0.1023): 868.25 ± 0.49 kg/m3
mass density (50000 kPa, x2 = 0.2009): 844.11 ± 0.54 kg/m3
mass density (50000 kPa, x2 = 0.3009): 821.56 ± 0.58 kg/m3
mass density (50000 kPa, x2 = 0.3981): 801.14 ± 0.62 kg/m3
mass density (50000 kPa, x2 = 0.4986): 781.63 ± 0.66 kg/m3
mass density (50000 kPa, x2 = 0.5998): 763.29 ± 0.7 kg/m3
mass density (50000 kPa, x2 = 0.7038): 745.73 ± 0.73 kg/m3
mass density (50000 kPa, x2 = 0.7993): 730.8 ± 0.76 kg/m3
mass density (50000 kPa, x2 = 0.8995): 716.06 ± 0.79 kg/m3
mass density (50000 kPa, x2 = 0.9507): 709.05 ± 0.81 kg/m3
mass density (60000 kPa, x2 = 0.0531): 888.87 ± 0.49 kg/m3
mass density (60000 kPa, x2 = 0.1023): 876.05 ± 0.52 kg/m3
mass density (60000 kPa, x2 = 0.2009): 851.78 ± 0.58 kg/m3
mass density (60000 kPa, x2 = 0.3009): 829.15 ± 0.63 kg/m3
mass density (60000 kPa, x2 = 0.3981): 808.64 ± 0.68 kg/m3
mass density (60000 kPa, x2 = 0.4986): 788.91 ± 0.73 kg/m3
mass density (60000 kPa, x2 = 0.5998): 770.47 ± 0.77 kg/m3
mass density (60000 kPa, x2 = 0.7038): 752.78 ± 0.81 kg/m3
mass density (60000 kPa, x2 = 0.7993): 737.68 ± 0.85 kg/m3
mass density (60000 kPa, x2 = 0.8995): 722.83 ± 0.89 kg/m3
mass density (60000 kPa, x2 = 0.9507): 715.76 ± 0.9 kg/m3
mass density (65000 kPa, x2 = 0.0531): 892.62 ± 0.5 kg/m3
mass density (65000 kPa, x2 = 0.1023): 879.77 ± 0.54 kg/m3
mass density (65000 kPa, x2 = 0.2009): 855.45 ± 0.6 kg/m3
mass density (65000 kPa, x2 = 0.3009): 832.75 ± 0.66 kg/m3
mass density (65000 kPa, x2 = 0.3981): 812.18 ± 0.71 kg/m3
mass density (65000 kPa, x2 = 0.4986): 792.37 ± 0.76 kg/m3
mass density (65000 kPa, x2 = 0.5998): 773.88 ± 0.81 kg/m3
mass density (65000 kPa, x2 = 0.7038): 756.14 ± 0.85 kg/m3
mass density (65000 kPa, x2 = 0.7993): 741.15 ± 0.89 kg/m3
mass density (65000 kPa, x2 = 0.8995): 726.04 ± 0.93 kg/m3
mass density (65000 kPa, x2 = 0.9507): 718.95 ± 0.95 kg/m3
